Results reported in US11649255B2, “Indazoles as hematopoietic progenitor kinase 1 (HPK1) inhibitors and methods using same” (1st Biotherapeutics, Inc., priority 2020, dated 2023).
Where two headings read alike, the source gives them in different places.

Legend:
recombinant human HPK1 = recombinant human HPK1 (Homo sapiens (Human), UniProt Q92918); assay: HPK1 kinase assay (ADP-Glo); assay type: biochemical; details: 25 μM ATP, MBP substrate
How it was run: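 Activity was read as ADP formed, detected by ADP-Glo luminescence after the reaction of 5 ng recombinant human HPK1 with MBP and ATP (stocks 0.5 μg/μl and 25 μM) for 40 min at 30 °C. Buffer was Tris pH 7.5 with MgCl2, BSA and DTT, with compound in 0.5% DMSO. IC50 came from inhibition curves.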

[1] = system: human peripheral blood pan T cells; assay: IFNγ and IL-2 analysis of human peripheral pan T cells; assay type: cell-based; details: T-cell, CD3/CD28 bead stimulation, 100 nM Prostaglandin E2, 24 hr
Method: IFNγ and IL-2 Analysis of Human Peripheral Pan T Cells
Human peripheral blood pan T cells were purchased from STEMCELL™ Technologies Inc. Human peripheral blood pan T cells were thawed and suspended in DMEM media (10% FBS and 10 Penicillin/Streptomycin). 8×10^4 T cells were seeded in 96-well plate and incubated with various concentration of compounds and 100 nM Prostaglandin E2 for 1 hr. T cells were stimulated with Dynabeads Human T-Activator CD3/CD28 (Life Technologies) at a 1:3 cells: beads ratio. […] Data were analyzed with an MESO Quickplex SQ120 (Mesoscale Discovery).
In Table 3, the values represent + for >1000 nM, ++ 200-1,000 nM, +++ for <200 nM and − for not determined.

[2] = IFNγ secretion, read-out: IFNγ (EC50)
[3] = IL-2 secretion, read-out: IL-2 (EC50)

Chain of recombinant human HPK1 (Q92918 whole entry): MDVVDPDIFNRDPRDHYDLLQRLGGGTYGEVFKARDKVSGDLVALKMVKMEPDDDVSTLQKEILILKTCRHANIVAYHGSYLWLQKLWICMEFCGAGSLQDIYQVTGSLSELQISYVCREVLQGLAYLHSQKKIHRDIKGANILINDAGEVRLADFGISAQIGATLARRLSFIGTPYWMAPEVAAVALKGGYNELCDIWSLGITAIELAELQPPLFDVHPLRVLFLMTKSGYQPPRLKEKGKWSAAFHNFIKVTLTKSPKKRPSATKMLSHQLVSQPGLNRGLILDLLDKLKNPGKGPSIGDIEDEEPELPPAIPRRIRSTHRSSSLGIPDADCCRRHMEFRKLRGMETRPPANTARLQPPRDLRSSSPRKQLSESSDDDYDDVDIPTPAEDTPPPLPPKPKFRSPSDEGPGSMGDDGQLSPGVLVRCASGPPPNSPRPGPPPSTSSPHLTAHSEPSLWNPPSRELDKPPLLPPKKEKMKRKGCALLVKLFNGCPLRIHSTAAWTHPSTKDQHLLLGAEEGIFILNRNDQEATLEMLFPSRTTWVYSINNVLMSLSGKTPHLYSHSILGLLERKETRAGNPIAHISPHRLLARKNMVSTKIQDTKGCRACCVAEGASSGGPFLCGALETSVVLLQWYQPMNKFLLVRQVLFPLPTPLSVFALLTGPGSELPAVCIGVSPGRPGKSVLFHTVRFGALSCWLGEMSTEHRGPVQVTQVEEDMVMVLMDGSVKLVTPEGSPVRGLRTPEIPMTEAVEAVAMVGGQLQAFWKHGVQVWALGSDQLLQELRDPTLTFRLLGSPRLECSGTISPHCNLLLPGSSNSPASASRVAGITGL

Structure (SMILES) | IC50 (recombinant human HPK1) [nM] | EC50 [1, 2] [nM] | EC50 [1, 3] [nM]
CSc1c(F)c(N(C)C)c2[nH]ncc2c1-c1ccc2nc(NC(=O)[C@@H]3C[C@@H]3F)sc2n1 [Example 194, (1S,2S)-N-(5-(7-(dimethylamino)-6-fluoro-5-(methylthio)-1H-indazol-4-yl)thiazolo[5,4-b]pyridin-2-yl)-2-fluorocyclopropane-1-carboxamide] | < 100 | 200 to 1000 | –
Cc1c(F)c(C)c2[nH]ncc2c1-c1ccc2nc(NC(=O)[C@@H]3C[C@@H]3F)sc2n1 [Example 199, (1S,2S)-2-fluoro-N-(5-(6-fluoro-5,7-dimethyl-1H-indazol-4-yl)thiazolo[5,4-b]pyridin-2-yl)cyclopropane-1-carboxamide] | < 100 | 200 to 1000 | –
CN(C)c1c(F)c(Cl)c(-c2ccc3nc(NC(=O)[C@@H]4C[C@@H]4F)cn3c2)c2cn[nH]c12 [Example 258, (1S,2S)—N-(6-(5-chloro-7-(dimethylamino)-6-fluoro-1H-indazol-4-yl)imidazo[1,2-a]pyridin-2-yl)-2-fluorocyclopropane-1-carboxamide] | < 100 | < 200 | 200 to 1000
CCc1c(F)c(N(C)C)c2[nH]ncc2c1-c1ccc2nc(NC(=O)[C@@H]3C[C@@H]3F)cn2c1 [Example 291, (1S,2S)-N-(6-(7-(dimethylamino)-5-ethyl-6-fluoro-1H-indazol-4-yl)imidazo[1,2-a]pyridin-2-yl)-2-fluorocyclopropane-1-carboxamide] | < 100 | < 200 | 200 to 1000
CCc1c(F)c(SC)c2[nH]ncc2c1-c1ccc2nc(NC(=O)[C@@H]3C[C@@H]3F)cn2c1 [Example 293, (1S,2S)-N-(6-(5-ethyl-6-fluoro-7-(methylthio)-1H-indazol-4-yl)imidazo[1,2-a]pyridin-2-yl)-2-fluorocyclopropane-1-carboxamide] | < 100 | < 200 | –
CSc1c(F)cc2[nH]ncc2c1-c1ccc2nc(NC(=O)[C@@H]3C[C@@H]3F)cn2c1 [Example 296, (1S,2S)-2-fluoro-N-(6-(6-fluoro-5-(methylthio)-1H-indazol-4-yl)imidazo[1,2-a]pyridin-2-yl)cyclopropane-1-carboxamide] | < 100 | < 200 | 200 to 1000
CSc1c(F)c(SC)c2[nH]ncc2c1-c1ccc2nc(NC(=O)[C@@H]3C[C@@H]3F)cn2c1 [Example 297, (1S,2S)-2-fluoro-N-(6-(6-fluoro-5,7-bis(methylthio)-1H-indazol-4-yl)imidazo[1,2-a]pyridin-2-yl)cyclopropane-1-carboxamide] | < 100 | < 200 | < 200
CC(=O)N(C)c1c(F)c(Cl)c(-c2ccc3nc(NC(=O)[C@@H]4C[C@@H]4F)cn3c2)c2cn[nH]c12 [Example 316, (1S,2S)-N-(6-(5-chloro-6-fluoro-7-(N-methylacetamido)-1H-indazol-4-yl)imidazo[1,2-a]pyridin-2-yl)-2-fluorocyclopropane-1-carboxamide] | < 100 | 200 to 1000 | > 1000
CN(C)C(=O)c1c(F)c(Cl)c(-c2ccc3nc(NC(=O)[C@@H]4C[C@@H]4F)cn3c2)c2cn[nH]c12 [Example 320, 5-chloro-6-fluoro-4-(2-((1S,2S)-2-fluorocyclopropane-1-carboxamido)imidazo[1,2-a]pyridin-6-yl)-N,N-dimethyl-1H-indazole-7-carboxamide] | < 100 | 200 to 1000 | –
CCN(C)c1c(F)c(SC)c(-c2ccc3nc(NC(=O)[C@@H]4C[C@@H]4F)cn3c2)c2cn[nH]c12 [Example 324, (1S,2S)-N-(6-(7-(ethyl(methyl)amino)-6-fluoro-5-(methylthio)-1H-indazol-4-yl)imidazo[1,2-a]pyridin-2-yl)-2-fluorocyclopropane-1-carboxamide] | < 100 | < 200 | 200 to 1000
CCc1c(F)c(N(C)CC)c2[nH]ncc2c1-c1ccc2nc(NC(=O)[C@@H]3C[C@@H]3F)cn2c1 [Example 326, (1S,2S)-N-(6-(5-ethyl-7-(ethyl(methyl)amino)-6-fluoro-1H-indazol-4-yl)imidazo[1,2-a]pyridin-2-yl)-2-fluorocyclopropane-1-carboxamide] | < 100 | 200 to 1000 | 200 to 1000
CN(C)c1c(F)c(Cl)c(-c2ccc3nc(NC(=O)C4CC4)cn3c2)c2cn[nH]c12 [Example 327, N-(6-(5-chloro-7-(dimethylamino)-6-fluoro-1H-indazol-4-yl)imidazo[1,2-a]pyridin-2-yl)cyclopropanecarboxamide] | < 100 | < 200 | 200 to 1000
Cc1c(F)c(C(=O)N(C)C)c2[nH]ncc2c1-c1ccc2nc(NC(=O)[C@@H]3C[C@@H]3F)cn2c1 [Example 329, 6-fluoro-4-(2-((1S,2S)-2-fluorocyclopropane-1-carboxamido)imidazo[1,2-a]pyridin-6-yl)-N,N,5-trimethyl-1H-indazole-7-carboxamide] | < 100 | 200 to 1000 | 200 to 1000
CN(C)c1c(F)c(Cl)c(-c2ccc3nc(NC(=O)[C@H]4C[C@@H]4F)cn3c2)c2cn[nH]c12 [Example 332, (1R,2S)-N-(6-(5-chloro-7-(dimethylamino)-6-fluoro-1H-indazol-4-yl)imidazo[1,2-a]pyridin-2-yl)-2-fluorocyclopropane-1-carboxamide] | < 100 | 200 to 1000 | 200 to 1000
CN(C)c1c(F)c(Cl)c(-c2ccc3nc(NC(=O)[C@@H]4C[C@H]4F)cn3c2)c2cn[nH]c12 [Example 333, (1S,2R)-N-(6-(5-chloro-7-(dimethylamino)-6-fluoro-1H-indazol-4-yl)imidazo[1,2-a]pyridin-2-yl)-2-fluorocyclopropane-1-carboxamide] | < 100 | 200 to 1000 | 200 to 1000
CN(C)c1c(F)c(Cl)c(-c2ccc3nc(NC(=O)[C@H]4C[C@H]4F)cn3c2)c2cn[nH]c12 [Example 334, (1R,2R)-N-(6-(5-chloro-7-(dimethylamino)-6-fluoro-1H-indazol-4-yl)imidazo[1,2-a]pyridin-2-yl)-2-fluorocyclopropane-1-carboxamide] | < 100 | 200 to 1000 | 200 to 1000

The remaining lines, values ahead:

IC50 (recombinant human HPK1) [nM] | EC50 [1, 2] [nM] | EC50 [1, 3] [nM] | Structure (SMILES)
< 100 | 200 to 1000 | > 1000 | CCc1c(F)c(SCC(=O)NC)c2[nH]ncc2c1-c1ccc2nc(NC(=O)[C@@H]3C[C@@H]3F)sc2n1 [Example 167, (1S,2S)-N-(5-(5-ethyl-6-fluoro-7-((2-(methylamino)-2-oxoethyl)thio)-1H-indazol-4-yl)thiazolo[5,4-b]pyridin-2-yl)-2-fluorocyclopropane-1-carboxamide]
< 100 | 200 to 1000 | > 1000 | Cc1c(F)c(N(C)C)c2[nH]ncc2c1-c1ccc2nc(NC(=O)[C@@H]3C[C@@H]3F)sc2n1 [Example 169, (1S,2S)-N-(5-(7-(dimethylamino)-6-fluoro-5-methyl-1H-indazol-4-yl)thiazolo[5,4-b]pyridin-2-yl)-2-fluorocyclopropane-1-carboxamide]
< 100 | 200 to 1000 | > 1000 | CSc1c(F)c(SC)c2[nH]ncc2c1-c1ccc2nc(NC(=O)[C@@H]3C[C@@H]3F)sc2n1 [Example 170, (1S,2S)-2-fluoro-N-(5-(6-fluoro-5,7-bis(methylthio)-1H-indazol-4-yl)thiazolo[5,4-b]pyridin-2-yl)cyclopropane-1-carboxamide]
< 100 | 200 to 1000 | – | CN(C)c1c(F)c(Cl)c(-c2ccc3nc(NC(=O)[C@@H]4C[C@@H]4F)sc3n2)c2cn[nH]c12 [Example 172, (1S,2S)-N-(5-(5-chloro-7-(dimethylamino)-6-fluoro-1H-indazol-4-yl)thiazolo[5,4-b]pyridin-2-yl)-2-fluorocyclopropane-1-carboxamide]
< 100 | 200 to 1000 | – | CSc1c(F)c(Cl)c(-c2ccc3nc(NC(=O)[C@@H]4C[C@@H]4F)sc3n2)c2cn[nH]c12 [Example 174, (1S,2S)-N-(5-(5-chloro-6-fluoro-7-(methylthio)-1H-indazol-4-yl)thiazolo[5,4-b]pyridin-2-yl)-2-fluorocyclopropane-1-carboxamide]
< 100 | < 200 | – | CCOc1c(F)c(C)c(-c2ccc3nc(NC(=O)[C@@H]4C[C@@H]4F)sc3n2)c2cn[nH]c12 [Example 175, (1S,2S)-N-(5-(7-ethoxy-6-fluoro-5-methyl-1H-indazol-4-yl)thiazolo[5,4-b]pyridin-2-yl)-2-fluorocyclopropane-1-carboxamide]
< 100 | < 200 | – | CCOc1c(F)c(SC)c(-c2ccc3nc(NC(=O)[C@@H]4C[C@@H]4F)sc3n2)c2cn[nH]c12 [Example 184, (1S,2S)-N-(5-(7-ethoxy-6-fluoro-5-(methylthio)-1H-indazol-4-yl)thiazolo[5,4-b]pyridin-2-yl)-2-fluorocyclopropane-1-carboxamide]
< 100 | 200 to 1000 | > 1000 | CN(C)C(=O)c1c(F)c(Cl)c(-c2ccc3nc(NC(=O)[C@@H]4C[C@@H]4F)sc3n2)c2cn[nH]c12 [Example 193, 5-chloro-6-fluoro-4-(2-((1S,2S)-2-fluorocyclopropane-1-carboxamido)thiazolo[5,4-b]pyridin-5-yl)-N,N-dimethyl-1H-indazole-7-carboxamide]
